Test results reported in ChEMBL document CHEMBL4823324, “Discovery of BMS-986318, a Potent Nonbile Acid FXR Agonist for the Treatment of Nonalcoholic Steatohepatitis” (ACS Med Chem Lett, 2021).

Key:
[1] = Cmax in C57B6 mouse at 1 mg/kg, iv; assay type: ADME, organism-based; set-up: route intravenous, dose 1 mg/kg; details: in vivo
[2] = Oral bioavailability in C57B6 mouse at 2 mg/kg administered as suspension; assay type: ADME, organism-based; details: in vivo
Cytochrome P450 3A4 = Cytochrome P450 3A4 (Homo sapiens, UniProt P08684); assay: Inhibition of CYP3A4 (unknown origin) expressed in baculovirus infected insect supersomes preincubated for 15 mins followed by addition of NADPH regenerating system by fluorescence based analysis; assay type: ADME
[3] = target: T1, Oxysterols receptor LXR-alpha (Homo sapiens, UniProt Q13133); assay: Activation of human LXRalpha co-expressed with TK-luciferase reporter in African green monkey CV-1 cells incubated for overnight by Steady-Glo luciferase reporter gene based luminescence analysis; assay type: cell-based
T1 sequence (Q13133 whole entry): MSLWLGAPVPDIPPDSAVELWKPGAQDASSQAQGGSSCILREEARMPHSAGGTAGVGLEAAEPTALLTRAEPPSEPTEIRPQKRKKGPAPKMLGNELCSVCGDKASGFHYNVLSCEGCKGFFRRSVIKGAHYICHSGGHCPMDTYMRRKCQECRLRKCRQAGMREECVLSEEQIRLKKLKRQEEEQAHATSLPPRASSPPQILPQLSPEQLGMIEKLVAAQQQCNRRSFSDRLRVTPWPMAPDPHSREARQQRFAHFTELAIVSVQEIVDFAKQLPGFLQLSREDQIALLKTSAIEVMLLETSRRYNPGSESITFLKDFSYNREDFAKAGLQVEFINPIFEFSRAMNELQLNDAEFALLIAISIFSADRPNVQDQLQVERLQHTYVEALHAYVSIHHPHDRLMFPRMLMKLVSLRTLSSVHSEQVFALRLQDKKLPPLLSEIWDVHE

[4] = Metabolic stability in mouse liver microsomes assessed as half life; assay type: ADME, Microsome
[5] = AUC in C57B6 mouse at 2 mg/kg, po administered as solution; assay type: ADME, organism-based; set-up: dose 2 mg/kg; details: in vivo
[6] = Oral bioavailability in C57B6 mouse at 2 mg/kg administered as solution; assay type: ADME, organism-based; details: in vivo
[7] = target: T2, Nuclear receptor ROR-alpha (Homo sapiens, UniProt P35398); assay: Antagonist activity at human RORalpha (272 to 557 residues) co-expressed with Gal4-luciferase reporter in human Jurkat cells incubated for 18 hrs by Steady-Glo luciferase reporter based luminescence analysis; assay type: cell-based
T2 sequence (P35398 whole entry): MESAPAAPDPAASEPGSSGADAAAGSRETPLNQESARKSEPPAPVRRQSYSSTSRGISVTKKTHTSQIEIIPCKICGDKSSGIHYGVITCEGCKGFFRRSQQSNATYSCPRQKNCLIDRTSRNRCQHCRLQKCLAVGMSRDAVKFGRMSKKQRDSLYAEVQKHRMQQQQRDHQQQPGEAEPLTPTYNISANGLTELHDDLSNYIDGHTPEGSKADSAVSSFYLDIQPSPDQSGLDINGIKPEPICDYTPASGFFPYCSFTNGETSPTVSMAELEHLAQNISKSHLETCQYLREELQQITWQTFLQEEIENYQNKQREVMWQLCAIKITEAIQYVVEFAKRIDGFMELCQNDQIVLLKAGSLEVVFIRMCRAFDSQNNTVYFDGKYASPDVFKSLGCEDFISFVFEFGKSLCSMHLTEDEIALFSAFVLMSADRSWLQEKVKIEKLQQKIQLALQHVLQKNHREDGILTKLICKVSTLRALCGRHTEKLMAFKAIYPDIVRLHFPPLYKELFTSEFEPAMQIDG

[8] = AUC in C57B6 mouse at 1 mg/kg, iv; assay type: ADME, organism-based; set-up: dose 1 mg/kg; details: in vivo
[9] = Half life in C57B6 mouse at 2 mg/kg, po administered as solution; assay type: ADME, organism-based; details: in vivo
[10] = target: T3, Nuclear receptor ROR-gamma (Homo sapiens, UniProt P51449); assay: Displacement of [3H]25-hydroxycholesterol from human N-terminal His-tagged RORgammaT LBD (262 to 508 residues) expressed in Escherichia coli preincubated for 10 mins followed by addition [3H]25-OH cholesterol and measured after 10 mins by scintillation proximity assay
T3 sequence (P51449 whole entry): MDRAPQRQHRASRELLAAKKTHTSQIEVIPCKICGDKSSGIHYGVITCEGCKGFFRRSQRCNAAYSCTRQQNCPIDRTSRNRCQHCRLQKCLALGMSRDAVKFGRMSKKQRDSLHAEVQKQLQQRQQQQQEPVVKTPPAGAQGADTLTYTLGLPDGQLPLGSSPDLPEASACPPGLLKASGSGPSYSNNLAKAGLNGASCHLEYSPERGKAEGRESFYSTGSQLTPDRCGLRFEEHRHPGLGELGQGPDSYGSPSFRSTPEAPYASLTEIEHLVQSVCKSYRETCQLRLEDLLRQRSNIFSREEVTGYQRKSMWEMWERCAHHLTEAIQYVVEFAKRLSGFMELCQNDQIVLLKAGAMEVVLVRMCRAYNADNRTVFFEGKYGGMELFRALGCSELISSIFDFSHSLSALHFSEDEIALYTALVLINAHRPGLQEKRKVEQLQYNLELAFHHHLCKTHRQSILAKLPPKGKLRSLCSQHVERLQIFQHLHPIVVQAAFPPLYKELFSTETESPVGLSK

[11] = Half life in C57B6 mouse at 2 mg/kg, po administered as suspension; assay type: ADME, organism-based; details: in vivo
[12] = target: T2, Nuclear receptor ROR-alpha; assay: Agonist activity at human RORalpha (272 to 557 residues) co-expressed with Gal4-luciferase reporter in human Jurkat cells incubated for 18 hrs by Steady-Glo luciferase reporter based luminescence analysis; assay type: cell-based
Estrogen receptor = target: T4, Estrogen receptor (Homo sapiens, UniProt P03372); assay: Activation of estrogen receptor alpha (unknown origin) by fluorescence polarization based competition assay
T4 sequence (P03372 whole entry): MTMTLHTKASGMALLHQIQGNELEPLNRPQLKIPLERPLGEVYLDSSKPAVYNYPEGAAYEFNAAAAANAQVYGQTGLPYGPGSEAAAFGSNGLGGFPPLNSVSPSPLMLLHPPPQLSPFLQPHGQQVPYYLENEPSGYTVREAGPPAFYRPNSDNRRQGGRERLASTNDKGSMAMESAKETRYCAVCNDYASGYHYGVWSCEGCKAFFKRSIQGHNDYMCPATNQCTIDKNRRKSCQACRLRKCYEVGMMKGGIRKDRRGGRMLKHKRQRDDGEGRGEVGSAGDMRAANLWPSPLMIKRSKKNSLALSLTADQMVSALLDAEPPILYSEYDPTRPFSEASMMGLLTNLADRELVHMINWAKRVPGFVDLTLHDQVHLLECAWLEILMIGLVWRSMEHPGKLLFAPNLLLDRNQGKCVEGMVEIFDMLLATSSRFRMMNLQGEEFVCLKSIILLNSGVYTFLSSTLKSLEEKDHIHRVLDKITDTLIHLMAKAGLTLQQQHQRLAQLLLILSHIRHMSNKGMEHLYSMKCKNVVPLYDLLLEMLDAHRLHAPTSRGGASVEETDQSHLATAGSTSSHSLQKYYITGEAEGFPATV

[13] = Half life in C57B6 mouse at 1 mg/kg, iv; assay type: ADME, organism-based; details: in vivo

Sequence of Cytochrome P450 3A4 (P08684 whole entry): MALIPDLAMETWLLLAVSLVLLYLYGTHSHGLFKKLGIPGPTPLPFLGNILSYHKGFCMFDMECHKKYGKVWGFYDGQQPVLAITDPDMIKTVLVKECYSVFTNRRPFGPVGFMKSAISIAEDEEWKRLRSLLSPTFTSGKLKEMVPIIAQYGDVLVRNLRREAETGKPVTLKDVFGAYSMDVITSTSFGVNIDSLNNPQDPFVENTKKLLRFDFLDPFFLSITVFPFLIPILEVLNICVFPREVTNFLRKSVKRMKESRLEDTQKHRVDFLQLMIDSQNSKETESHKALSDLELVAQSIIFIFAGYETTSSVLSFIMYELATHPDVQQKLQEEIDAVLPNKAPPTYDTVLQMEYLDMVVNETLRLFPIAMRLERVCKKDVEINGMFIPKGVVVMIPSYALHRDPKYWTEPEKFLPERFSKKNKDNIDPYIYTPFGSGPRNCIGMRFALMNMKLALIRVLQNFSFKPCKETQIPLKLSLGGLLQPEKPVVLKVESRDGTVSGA

SMILES: O=C(O)c1cc(C(F)(F)F)c2cc(N3CCC4(C=C(c5c(-c6c(Cl)cncc6Cl)noc5C5CC5)C4)CC3)ccc2n1
- Cmax [1]: 1490 nM
- bioavailability [2]: 26%
- IC50 (Cytochrome P450 3A4): > 40 µM
- EC50 [3]: > 40 µM
- half-life [4]: > 2 h
- AUC [5]: 6.65 µM·h
- bioavailability [6]: 36%
- IC50 [7]: > 40 µM
- AUC [8]: 9.32 µM·h
- half-life [9]: 2.3 h
- IC50 [10]: > 40 µM
- half-life [11]: 2 h
- EC50 [12]: > 40 µM
- EC50 (Estrogen receptor): > 40 µM
- half-life [13]: 2.6 h
